From patent USH1923H, “Herbicidal (oxaalkyl) phenyl-substituted heterocycles” (FMC Corporation, priority 1998, dated 2000) come the findings set out here.

The subject of experiment [1] is soybean. Briefly: preemergence herbicidal activity on soybean. Type of experiment: in vivo, Glycine max var. Winchester. Particulars: Glycine max, pre-emergence, 0.3 Kg/Ha, after 12-17 days, read-out: PREEMERGENCE HERBICIDAL ACTIVITY (% CONTROL) SOY. As to the method:
(§1) The (oxaalkyl)phenyl-substituted heterocycles of this invention were tested for pre- and postemergence herbicidal activity using a variety of crops and weeds. The test plants included soybean (Glycine max var. Winchester),field corn (Zea mays var. Pioneer 3732), wheat (Triticum aestivum var. Lew), morningglory (Ipomea lacunosa or Ipomea hederacea), […] (Abutilon theophrasti), green foxtail (Setaria viridis), Johnsongrass (Sorghum halepense), blackgrass (Aloepecurus myosuroides), common chickweed (Stellaria media), and common cocklebur (Xanthium strumarium L.).
(§2) For preemergence testing, two disposable fiber flats (8 cm×15 cm×25 cm) for each rate of application of each candidate herbicide were filled to an approximate depth of 6.5 cm with steam-sterilized sandy loam soil. The soil was leveled and impressed with a template to provide five evenly spaced furrows 13 cm long and 0.5 cm deep in each flat. Seeds of soybean, wheat, corn, green foxtail, and johnsongrass were planted in the furrows of the first flat, and seeds of velvetleaf, morningglory, common chickweed, cocklebur, and blackgrass were planted in the furrows of the second flat. The five-row template was employed to firmly press the seeds into place. A topping soil of equal portions of sand and sandy loam soil was placed uniformly on top of each flat to a depth of approximately 0.5 cm. Flats for postemergence testing were prepared in the same manner except that they were planted 9-14 days prior to the preemergence flats and were placed in a greenhouse and watered, thus allowing the seeds to germinate and the foliage to develop.
(§3) In both pre- and postemergence tests, a stock solution of the candidate herbicide was prepared by dissolving 0.27 g of the compound in 20 mL of water/acetone (50/50) containing 0.5% v/v sorbitan monolaurate. For an application rate of 3000 g/ha of herbicide a 10 mL portion of the stock solution was diluted with water/acetone (50/50) to 45 mL.
(§4) The preemergence flats were initially subjected to a light water spray. The four flats were placed two by two along a conveyor belt (i.e., the two preemergence followed by the two postemergence flats). The conveyor belt fed under a spray nozzle mounted about ten inches above the postemergent foliage. The preemergent flats were elevated on the belt so that the soil surface was at the same level below the spray nozzle as the foliage canopy of the postemergent plants. The spray of herbicidal solution was commenced and once stabilized, the flats were passed under the spray at a speed to receive a coverage equivalent of 1000 L/ha. At this coverage the application rates are those shown in the above table for the individual herbicidal solutions. The preemergence flats were watered immediately thereafter, placed in the greenhouse and watered regularly at the soil surface. The postemergence flats were immediately placed in the green-house and not watered until 24 hours after treatment with the test solution. Thereafter they were regularly watered at ground level. After 12-17 days the plants were examined and the phytotoxicity data were recorded.
(§5) Phytotoxicity data were taken as percent control. Percent control was by a method similar to the 0 to 1 00 rating system disclosed in "Research Methods in Weed Science," 2nd ed., B. Truelove, Ed.; Southern Weed Science Society; Auburn University, Auburn, Ala., 1977.

Experiment [2] deals with wheat. Briefly: preemergence herbicidal activity on wheat. Type of experiment: in vivo, Triticum aestivum var. Lew. Particulars: Triticum aestivum, pre-emergence, 0.3 Kg/Ha, after 12-17 days, read-out: PREEMERGENCE HERBICIDAL ACTIVITY (% CONTROL) WHT. As to the method:
as §1, §2, §3, §4, §5

For experiment [3], the system named is corn. In words: preemergence herbicidal activity on corn. Type of experiment: in vivo, Zea mays var. Pioneer 3732. Particulars: Zea mays, pre-emergence, 0.3 Kg/Ha, after 12-17 days, read-out: PREEMERGENCE HERBICIDAL ACTIVITY (% CONTROL) CRN. As to the method: as §1, §2, §3, §4, §5
For experiment [4], the system named is velvetleaf. Briefly: preemergence herbicidal activity on velvetleaf. Type of experiment: in vivo. The conditions noted are these: Abutilon theophrasti, pre-emergence, 0.3 Kg/Ha, after 12-17 days, read-out: PREEMERGENCE HERBICIDAL ACTIVITY (% CONTROL) ABUTH. Here is the method: as §1, §2, §3, §4, §5
Experiment [5] relates to morningglory. In words: preemergence herbicidal activity on morningglory. Type of experiment: in vivo, Ipomea lacunosa or Ipomea hederacea. The conditions noted are these: Ipomoea, pre-emergence, 0.3 Kg/Ha, after 12-17 days, read-out: PREEMERGENCE HERBICIDAL ACTIVITY (% CONTROL) IPOSS. As to the method: as §1, §2, §3, §4, §5
The subject of experiment [6] is chickweed. In words: preemergence herbicidal activity on chickweed. The class given is in vivo. The conditions noted are these: Stellaria media, pre-emergence, 0.3 Kg/Ha, after 12-17 days, read-out: PREEMERGENCE HERBICIDAL ACTIVITY (% CONTROL) STEME. Here is the method: as §1, §2, §3, §4, §5
For experiment [7], the system named is blackgrass. Briefly: preemergence herbicidal activity on blackgrass. The conditions noted are these: Alopecurus myosuroides, pre-emergence, 0.3 Kg/Ha, after 12-17 days, read-out: PREEMERGENCE HERBICIDAL ACTIVITY (% CONTROL) ALOMY. Type of experiment: in vivo, Aloepecurus myosuroides. As to the method: as §1, §2, §3, §4, §5
For experiment [8], the system named is green foxtail. In words: preemergence herbicidal activity on green foxtail. The class given is in vivo. The conditions noted are these: Setaria viridis, pre-emergence, 0.3 Kg/Ha, after 12-17 days, read-out: PREEMERGENCE HERBICIDAL ACTIVITY (% CONTROL) SETVI. Here is the method:
as §1, §2, §3, §4, §5

In experiment [9] the test system is johnsongrass. In words: preemergence herbicidal activity on johnsongrass. Type of experiment: in vivo. The conditions noted are these: Sorghum halepense, pre-emergence, 0.3 Kg/Ha, after 12-17 days, read-out: PREEMERGENCE HERBICIDAL ACTIVITY (% CONTROL) SORHA. Here is the method: as §1, §2, §3, §4, §5
Experiment [10] deals with soybean. In words: postemergence herbicidal activity on soybean. The conditions noted are these: Glycine max, post-emergence, 0.3 Kg/Ha, after 12-17 days, read-out: POSTEMERGENCE HERBICIDAL ACTIVITY (% CONTROL) SOY. Type of experiment: in vivo, Glycine max var. Winchester. As to the method:
as §1, §2, §3, §4, §5

Experiment [11] relates to wheat. Briefly: postemergence herbicidal activity on wheat. The class given is in vivo, Triticum aestivum var. Lew. Particulars: Triticum aestivum, post-emergence, 0.3 Kg/Ha, after 12-17 days, read-out: POSTEMERGENCE HERBICIDAL ACTIVITY (% CONTROL) WHT. Here is the method:
as §1, §2, §3, §4, §5

Experiment [12] concerns corn. In words: postemergence herbicidal activity on corn. The class given is in vivo, Zea mays var. Pioneer 3732. The conditions noted are these: Zea mays, post-emergence, 0.3 Kg/Ha, after 12-17 days, read-out: POSTEMERGENCE HERBICIDAL ACTIVITY (% CONTROL) CRN. Here is the method:
as §1, §2, §3, §4, §5

In experiment [13] the test system is velvetleaf. In words: postemergence herbicidal activity on velvetleaf. Type of experiment: in vivo. The conditions noted are these: Abutilon theophrasti, post-emergence, 0.3 Kg/Ha, after 12-17 days, read-out: POSTEMERGENCE HERBICIDAL ACTIVITY (% CONTROL) ABUTH. As to the method:
as §1, §2, §3, §4, §5

Experiment [14] concerns morningglory. In words: postemergence herbicidal activity on morningglory. The class given is in vivo, Ipomea lacunosa or Ipomea hederacea. The conditions noted are these: Ipomoea, post-emergence, 0.3 Kg/Ha, after 12-17 days, read-out: POSTEMERGENCE HERBICIDAL ACTIVITY (% CONTROL) IPOSS. Here is the method: as §1, §2, §3, §4, §5
Experiment [15] deals with chickweed. Briefly: postemergence herbicidal activity on chickweed. Particulars: Stellaria media, post-emergence, 0.3 Kg/Ha, after 12-17 days, read-out: POSTEMERGENCE HERBICIDAL ACTIVITY (% CONTROL) STEME. Type of experiment: in vivo. As to the method:
as §1, §2, §3, §4, §5

In experiment [16] the test system is cocklebur. Briefly: postemergence herbicidal activity on cocklebur. Type of experiment: in vivo, Xanthium strumarium L. Particulars: Xanthium strumarium, post-emergence, 0.3 Kg/Ha, after 12-17 days, read-out: POSTEMERGENCE HERBICIDAL ACTIVITY (% CONTROL) XANPE. Here is the method:
as §1, §2, §3, §4, §5

Experiment [17] relates to blackgrass. In words: postemergence herbicidal activity on blackgrass. Particulars: Alopecurus myosuroides, post-emergence, 0.3 Kg/Ha, after 12-17 days, read-out: POSTEMERGENCE HERBICIDAL ACTIVITY (% CONTROL) ALOMY. The class given is in vivo, Aloepecurus myosuroides. As to the method: as §1, §2, §3, §4, §5
The test system of experiment [18] is green foxtail. Briefly: postemergence herbicidal activity on green foxtail. The class given is in vivo. Particulars: Setaria viridis, post-emergence, 0.3 Kg/Ha, after 12-17 days, read-out: POSTEMERGENCE HERBICIDAL ACTIVITY (% CONTROL) SETVI. Here is the method: as §1, §2, §3, §4, §5
The test system of experiment [19] is johnsongrass. In words: postemergence herbicidal activity on johnsongrass. The conditions noted are these: Sorghum halepense, post-emergence, 0.3 Kg/Ha, after 12-17 days, read-out: POSTEMERGENCE HERBICIDAL ACTIVITY (% CONTROL) SORHA. The class given is in vivo. As to the method: as §1, §2, §3, §4, §5

As for `CNC(=O)OCC(Cl)Cc1cc(-n2nc(C)n(C(F)F)c2=O)c(F)cc1Cl` (stereo not shown) [Compound 31, 2-CHLORO-1-[2-CHLORO-4-FLUORO-5-[4DIFLUOROMETHYL-4,5-DIHYDRO-3-METHYL-1,2,4-TRIAZOL-5(1H)-ON-1-YL]PHENYL]PROPAN-3-YL METHYLCARBAMATE], the activity at 300 g/ha is 100% in [1]; 70% in experiment [2]; 90% in [3]; 100% in experiment [4]; 100% in experiment [5]; 100% in experiment [6]. The activity at 300 g/ha in [7] was 70%; in experiment [8], 100%; in [9], 100%; in [10] it was 95%; in experiment [11], 50%; in experiment [12], 85%. The activity at 300 g/ha in experiment [13] turned out to be 100%; in [14], 100%; in [15], 100%; in experiment [16], 100%; in experiment [17] it was 75%; in experiment [18], 100%. Moreover, the activity at 300 g/ha in experiment [19] came to 100%.

In the case of `CCNC(=O)OCC(Cl)Cc1cc(-n2nc(C)n(C(F)F)c2=O)c(F)cc1Cl` (stereo not shown) [Compound 32], the activity at 300 g/ha in experiment [1] was found to be 100%; in experiment [2], 40%; in [3] it was 70%; in [4] it was 100%; in experiment [5], 95%; in experiment [6], 90%. Also, the activity at 300 g/ha amounted to 75% in [7]; 100% in experiment [8]; 95% in [9]; 95% in experiment [10]; 40% in experiment [11]; 80% in experiment [12]. The activity at 300 g/ha in experiment [13] was determined as 100%; in experiment [14], 95%; in experiment [15], 100%; in [16], 100%; in [17], 70%; in experiment [18], 100%. Moreover, in [19], the activity at 300 g/ha turned out to be 90%.

`Cc1nn(-c2cc(CC(Cl)COC(=O)NC(C)(C)C)c(Cl)cc2F)c(=O)n1C(F)F` (stereo not shown) [Compound 33]: the activity at 300 g/ha in experiment [1] is 60%; in experiment [2], 20%; in experiment [3] it was 80%; in experiment [4], 100%; in experiment [5], 70%; in experiment [6] it was 90%. Moreover, the activity at 300 g/ha stood at 70% in [7]; 100% in [8]; 80% in experiment [9]; 90% in experiment [10]; 40% in experiment [11]; 80% in experiment [12]. Moreover, the activity at 300 g/ha in experiment [13] was 100%; in [14], 100%; in experiment [15], 80%; in experiment [16], 100%; in experiment [17], 60%; in [18], 100%. Moreover, in experiment [19], the activity at 300 g/ha came out at 80%.

On to `Cc1nn(-c2cc(CC(Cl)COC(=O)NC(C)C)c(Cl)cc2F)c(=O)n1C(F)F` (stereo not shown) [Compound 34], for which the activity at 300 g/ha was 80% in experiment [1]; 50% in experiment [2]; 70% in experiment [3]; 100% in [4]; 100% in experiment [5]; 100% in experiment [6]. The activity at 300 g/ha amounted to 60% in experiment [7]; 100% in [8]; 100% in experiment [9]; 90% in experiment [10]; 50% in experiment [11]; 85% in experiment [12]. Besides, the activity at 300 g/ha in [13] stood at 100%; in experiment [14], 90%; in experiment [15] it was 75%; in [16] it was 100%; in experiment [17], 65%; in experiment [18], 100%. Also, the activity at 300 g/ha in [19] worked out at 95%.
